Test results as given in ChEMBL document CHEMBL2439949, “Synthesis and structure-activity relationships of phenyl-substituted coumarins with anti-tubercular activity that target FadD32” (Bioorg Med Chem Lett, 2013).
The source made the active and inactive calls. The calls are words filed in the database; no cut-off is given here.

Columns and labels:
[1] = test system: Mycobacterium tuberculosis; test: Antimycobacterial activity against Mycobacterium tuberculosis expressing FadD32 E120G mutant at 125 uM after 7 days; type: functional, organism-based
[2] = test system: Mycobacterium tuberculosis; test: Antimycobacterial activity against Mycobacterium tuberculosis expressing FadD32 E120G mutant after 7 days; type: functional

Structure (SMILES) | Activity [1] | IC90 [2] [µM]
Cc1cc2oc(=O)cc(-c3ccccc3)c2c(C)c1-c1ccc(C(C)O)cc1 (stereo not given) | inactive | 
Cc1cc2oc(=O)cc(-c3ccccc3)c2c(C)c1-c1ccc(CNC2CCCCC2)cc1 | inactive | 32
CNC(=O)c1ccc(-c2c(C)cc3oc(=O)cc(-c4ccccc4)c3c2C)cc1 | inactive | 
Cc1cc2oc(=O)cc(-c3cccnc3)c2c(C)c1-c1ccc(CN2CCOCC2)cc1 | inactive | 
Cc1cc2oc(=O)cc(-c3ccccc3)c2c(C)c1-c1ccc(CN2CCN(C)CC2)cc1 | inactive | 
CC(=O)Nc1cccc(-c2cc(=O)oc3cc(C)c(-c4ccc(CN5CCOCC5)cc4)c(C)c23)c1 | inactive | 
Cc1cc2oc(=O)cc(-c3ccc(N)cc3)c2c(C)c1-c1ccc(CN2CCOCC2)cc1 | inactive | 
Cc1cc2oc(=O)cc(-c3ccccc3)c2c(C)c1-c1ccncc1 | inactive | 
Cc1cc2oc(=O)cc(-c3cccc([N+](=O)[O-])c3)c2c(C)c1-c1ccc(CN2CCOCC2)cc1 | inactive | 
Cc1cc2oc(=O)cc(-c3ccccc3)c2c(C)c1-c1ccc(CN2CCOCC2)cc1 | inactive | 
Cc1cc2oc(=O)cc(-c3ccccc3)c2c(C)c1-c1ccccc1Cl | inactive | 
Cc1cc2oc(=O)cc(-c3ccccc3)c2c(C)c1-c1ccc(CO)cc1 | inactive | 
Cc1cc(CO)ccc1-c1c(C)cc2oc(=O)cc(-c3ccccc3)c2c1C | inactive | 
Cc1cc2oc(=O)cc(-c3ccccc3)c2c(C)c1-c1ccc(CN2CCCCC2)cc1 | inactive | 
